Measurements from patent US20020042437A1 (priority 1997, published 2002).
Read-outs that look alike come from different tables or passages of the source.

System: Phytophthora infestans
Type: in vivo
Settings: single active ingredient, tomato leaves, infected next day, evaluated after 6 days

Structure (SMILES) | Efficacy in % of the untreated control (0.25 ppm in the spray liquor) [%] | Efficacy in % of the untreated control (0.5 ppm in the spray liquor) [%] | Efficacy in % of the untreated control (1 ppm in the spray liquor) [%]
CNC(=O)/C(=N/OC)c1ccccc1COc1cc(C)ccc1C [Ib] | 0 | – | –
CO/N=C(/C(=O)OC)c1ccccc1COc1ccccc1C [Ia] | 0 | 0 | 0
CCC(C)(NC(=O)c1cc(Cl)c(C)c(Cl)c1)C(=O)CCl (stereo not drawn) [Compound II.1] | 0 | 20 | –
